From US5800838A, “Composition that inhibits or destroys at least one unicellular living organism containing fluorine F- and Lithium li+” (priority 1987, dated 1998)
Converted amounts (≈) assume the structure as drawn. Read-outs that look alike come from different tables or passages of the source.

Experiments:
[1] = tested on: Staphylococcus aureus; test: Antibiotic activity on hospital strains normally resistant to amoxicillin; format: cell-based; conditions: read-out: 100% inhibitory concentration
[2] = tested on: β-Haemolytic streptococcus; test: as above; format: cell-based; conditions: read-out: 100% inhibitory concentration
[3] = tested on: Klebsiella pneumoniae; test: as above; format: cell-based; conditions: read-out: 100% inhibitory concentration
[4] = tested on: Haemophilus influenzae; test: as above; format: cell-based
[5] = tested on: Escherichia coli (TEM plasmid); test: microbe, parasite or virus in culture; format: cell-based
[6] = tested on: staphylococcus aeurus; format: cell-based; conditions: Fli 4 ppm
Method: Strains Gram+ and Gram- (wild-type hospital) having a resistant phenotype vis a vis standard firstly and secondly used antibiotherapy were experimented on activated antibiotics.
250 experiments were conducted on the following strains: Streptococcus group B, C, D, F, G, Staphylococcus aureus, Staphylococcus epidermitis, Klebsiella pneumoniae, Klebsiella spirochete, Klebsiella oxytoca, Proteus mirabilis, Serratia marcescens, Escherichia coli, Citrobacter freundii, Enterobacter cloacae, Enterobacter calcoaceticus, Salmonella spirochete, Salmonella typhimurium, Pseudomonas aeruginosa, Haemophilus influenzae, Haemophilus sphrophilus, Acinetobacter calcoaeticus. […]

[7] = tested on: Haemophilus influenzae producing β-lactamase; test: Antibiotic activity of amoxicillin on hospital strains producing β-lactamase (Example 22); conditions: 4 ppm amoxicillin in the presence of 1 ppm clavulanic acid
[8] = tested on: spermatozoa; test: SANDERS-CRAMER total spermicidal test according to IPPF standards; format: cell-based; conditions: alone
[9] = tested on: Pseudomonas aeruginosa; test: MIC of gentamicine, inclined agar with concentration gradient; format: cell-based; conditions: alone; SENSIBLE strains
Method: (§1) The strains used were wild-type hospital strains having a resistant phenotype as regards gentamicine: pseudomonas aeruginosa, proteus mirabilis, serratia marcescens.
(§2) The phenotype of the strains was determined by diffusion in gradient on selective agar. Then, each group of strains having the same phenotype (resistant or sensible) was seeded on inclined agar having a gradient of concentration of the composition.
(§3) This methodology is explained by SZYBALSKI and BRYSON in "Selection de mutants resistant aux antibiotiques", L'antibiogramme, Vigot, p. 259-260.
(§4) The results are shown in the following table illustrating the MIC of gentamicine (aminoglycoside antibiotic).
(§5) x/y means a concentration read between x ppm and y ppm.

[10] = tested on: proteus mirabilis; test: as above; format: cell-based; conditions: alone; SENSIBLE strains
Method: as §1, §2, §3, §4, §5

[11] = tested on: serratia marcescens; test: as above; format: cell-based; conditions: alone; SENSIBLE strains
Method: as §1, §2, §3, §4, §5

[12] = tested on: proteus mirabilis; test: "chess" test, dilution in liquid medium, Trial 2; format: cell-based
Text: (§6) Substance A was gentamicine
The strain was a very resistant proteus mirabilis (wild-type hospital)

[13] = tested on: Klebsiella pneumoniae; test: "chess" test, dilution in liquid medium, Trial 3; format: cell-based
Text: as §6
The strain was Klebsiella pneumoniae (wild-type hospital strain)

[14] = tested on: Pseudomonas aeruginosa; test: "chess" test, dilution in liquid medium, Trial 4; format: cell-based
Text: as §6
The strain was pseudomonas aeruginosa (wild-type hospital resistant strain)

[15] = tested on: pseudomonas aeruginosa and Escherichia coli; format: cell-based
Text: It is known that a strain develops a resistance against an antibiotic substance with which it is left in contact, by a phenotypical mutation procedure.
This phenomena has been studied on pseudomonas aeruginosa and Escherichia coli (wild-type hospital strains) which commonly develop resistance against aminosides. The antibiotic substance choosen was thus gentamicine which is an aminoside antibiotic.
And the growth of the resistance was studied with gentamicine alone, then with gentamicine in presence of Fli.
The trial was conducted on 12 days, and the MIC of gentamicine alone and of gentamicine in presence of Fli (4 ppm) was determined each day on transportplates in liquid medium with a serie of dilution in Mueller/Hinton agar.
The MBC (Minimal Bactericide Concentration) was also determined from the solution after determination of the MIC seeded on agar adapted to the strain. The MBC is read for a percentage of survivors less than 0,20%.

[16] = tested on: salmonella spirochete; test: "Time killing curve", optical density at 600 nm; format: cell-based; conditions: Fli 32 ppm
Method: (§7) The kinetics of the bacterial growth of serratia marcescens and salmonella spirochete has been studied with the "Time killing curve" methodology, for gentamicine (64 ppm) alone, Fli (32 ppm) and gentamicine (64 ppm) in presence of Fli (32 ppm). The bacterial growth is determined by spectrophotometric reading of the optical density for a wavelength of 600 nm.
(§8) The following table illustrates the optical density (1/100) obtained: […]

[17] = tested on: serratia marcescens; test: "Time killing curve", optical density at 600 nm; format: cell-based; conditions: Fli 32 ppm
Method: as §7, §8

[18] = tested on: Staphylococcus aureus
Method: Concentration series of two antibiotic substances A and B are prepared in the geometric ratio of 2 are combined and the following values are determined:
MIC B/A = minimal inhibiting concentration B in presence of A [formula]
The MIC of the bacteriostatic effect is read when the percentage of surviving strains is less or equal to 1%.
The combination of the substances A and B is synergistic as regards the bacteriostatic effect when FIC≤0,75. The combination is additive when FIC=1. The combination is insensible when 1<FIC≤2. The combination is antagonistic when FIC>2.
Substance A was tetracycline (concentration serie from 0,25 to 128 mg/l)
Substance B was Fli (concentration serie from 0,25 to 16 mg/l)
The strain was staphylococcus aureus (wild-type hospital resistant strain)

[19] = tested on: MAC COY cells; test: Cytotoxic activity with respect to MAC COY cells; conditions: LiF at 1 mg/l; benzalkonium chloride under the conditions of the trials
[20] = read-out: 100% inhibitory concentration, alone
[21] = B (Fli) in presence of A (gentamicine)
[22] = alone, wild-type hospital resistant strain

CC1(C)S[C@@H]2[C@H](NC(=O)[C@H](N)c3ccc(O)cc3)C(=O)N2[C@H]1C(=O)O [amoxicillin]
MIC ([1]; alone): 32 µg/mL (≈ 87.6 µM) | MIC ([1]; in the presence of LiF 8 ppm): 8 µg/mL | MIC ([2]; alone): 16 µg/mL (≈ 43.8 µM) | MIC ([2]; in the presence of LiF 8 ppm): 4 µg/mL | MIC ([3]; alone): 64 µg/mL (≈ 175 µM) | MIC ([3]; in the presence of LiF 8 ppm): 2 µg/mL | MIC ([4]; in the presence of LiF 8 ppm, read-out: 100% inhibitory concentration): 32 µg/mL | MIC [4, 20]: > 128 µg/mL | MIC [5, 20]: > 128 µg/mL | MIC ([5]; read-out: 100% inhibitory concentration, in the presence of LiF 8 ppm): 32 µg/mL | phenotype in presence of Fli [6]: the resistant phenotype was not changed | time to inhibition of the strains to 100% [7]: 24 h

[F-].[Li+] [lithium fluoride]
MIC [8]: ~3 ppm | MIC, equivalent in % [8]: ~0.0003% | MIC [9]: > 32 ppm or mg/l | MIC [10]: > 32 ppm or mg/l | MIC [11]: > 32 ppm or mg/l | MIC B/A [12, 21]: 16 mg/L | MIC alone (MIC A, MIC B) ([12]; alone, very resistant wild-type hospital strain): 128 mg/L | MIC B/A [13, 21]: 32 mg/L | MIC alone (MIC A, MIC B) ([13]; alone, wild-type hospital strain): 128 mg/L | MIC B/A [14, 21]: 16 mg/L | MIC alone (MIC A, MIC B) [14, 22]: 128 mg/L | effect on creation of resistance [15]: retards the creation of the resistance and reduces to the half the capability of each strain for developping such resistances | resistance developed by the strain ([15]; against Fli, 12 days): no resistance is developped | optical density (1/100) ([16]; 3 h 00, gentamicine 64 ppm): 14 1/100 | optical density (1/100) ([16]; 24 h 00, gentamicine 64 ppm): 20 1/100 | optical density (1/100) ([17]; 3 h 00, gentamicine 64 ppm): 13 1/100 | optical density (1/100) ([17]; 6 h 00, gentamicine 64 ppm): 15 1/100 | optical density (1/100) ([17]; 24 h 00, gentamicine 64 ppm): 18 1/100 | MIC B/A ([18]; B (Fli) in presence of A (tetracycline)): 16 mg/L | MIC alone (MIC A, MIC B) [18, 22]: 64 mg/L | toxic activity [19]: does not have toxic activity
